Measured values as given in patent US9872863B2, “Targeting primary cilia to treat glaucoma” (Indiana University Research and Technology Corporation, priority 2014, dated 2018).

Key:
[1] = test system: wpk−/− rats; experiment: Intraocular pressure in wpk−/− rats (Tonolab tonometer); assay type: in vivo, rat; settings: 17-day-old wpk−/− rats, systemic, once per day for 8 days, agonist 50 ng/g, measured 24 hours after treatment
Protocol: All animal experiments followed the guidelines of the ARVO Statement for the Use of Animals in Ophthalmic and Vision Research and were approved by the Institutional Animal Care and Use Committee of Indiana University School of Medicine. Wpk rats, a polycystic kidney disease model, were housed under a 12-hour light/dark cycle with free access to water and food (Smith et al., Nat. Genet. 2006, 38(2):191-196). For […], 50 mg/ml sodium pentobarbital was injected.
(§1) lntraocular Pressure (TOP) was measured with the TONOLAB tonometer TV02 (Helsinki, Finland) with rats under topical anesthesia. IOP was measured using six valid rebound measurements of the device from the eye, where the mean of the middle five readings was taken for one summary measurement. A single set of readings was collected with the best reproducibility indicator during the IOP measurements.
Based on the results presented above, the functional consequences of activating TRPV4 on eye pressure were therefore assessed in the wpk rat model. The wpk rat is a well-established model for studying ciliopathy, as these animals develop hydrocephalus that responds to cilia-based therapy.
8-day old wpk^−/− rats were treated with sham, TRPV4 agonist (50 ng/g, GSK 1016790A), or antagonist (HC 067047) once per day for 8 days. […]

[2] = biological target: T1, TRPV4 (Homo sapiens, UniProt Q9HBA0); experiment: Ca2+ imaging, Fura-2 F340/380 ratio after TRPV4 agonist; assay type: cell-based; design: TRPV4-induced calcium flux, ratio of F340/380: dose or concentration left out as unconfirmed
T1 construct: endogenous in cells; host or cells: HTM cells, NHF fibroblasts, NHKC keratinocytes, Lowe syndrome patient fibroblasts and keratinocytes
Protocol: Flow-induced Ca^2+ signals were examined in the presence and absence of cilia in HTM cells. To remove primary cilia, 2 mM aqueous chlorohydrate (Sigma, St. Louis) was added for 48 hours. Prior to flow experiments, cells were washed three times with PBS, and fresh medium was added for 24 hours. The Fura-2 loaded HTM cells were subjected to laminar flow rates as indicated. Single-cell analysis of the Ca^2+ signals (ratio 340/380 nm) of the same experiment was obtained. Intracellular Ca^2+ changes were monitored by ratiometric imaging of Fura-2 AM fluorescence in the HTM cells. HTM cells were loaded with Fura-2 AM for 1 hour at 37° C. in PBS with 40 μM fura-2 AM, 0.33 mM pyruvate, 0.901 mM Ca^2+, 0.5 mM Mg^2+, 5.5 mM glucose, and 0.1% BSA. The Fura-2 AM-loaded HTM cells were washed in PBS and were mounted in the chamber. Ca^2+ imaging experiments were performed using a monochromator-based TILL PHOTONICS imaging system, which was attached to an inverted ZEISS microscope equipped (×2.5 objective) with a back-illuminated ANDOR CCD camera. Fura-2 AM was alternately excited at 345 nm and 380 nm and the emitted light was collected using a 510-nm long-pass filter. The TILLVISION software (TILL PHOTONICS) was used to acquire all fluorescence imaging experiments and to perform the analysis of images. Images were acquired every 2 seconds. The background fluorescence was subtracted and the intracellular Ca^2+ concentration ([Ca^2+]i) was calculated using the equation: [Ca^2+]i=Kd×[(R−Rmin)/(Rmax−R)]×[Fmax(380)/Fmin(380)](R is the fluorescence ratio, Rmax is the ratio at saturation calcium concentration, Rmin is the ratio at zero calcium in the medium, Fmin(380) is the fluorescence at 380 nm at zero Ca^2+ concentration in the medium, and Fmax(380) is the fluorescence at 380 nm at saturation Ca^2+ concentration) (Touw et al., Am. J. Physiol. Gastro. Liver Physiology 2012, 302(1):G66-76).
For calcium flow experiments, HTM cells and NHF cells were first incubated in 3% BSA in PBS and stained with Fura2 dye for 1 hour. Ca^2+ flux was induced by laminar flow gradient (16 μl/s) over the cell surface, which bends cilia, followed by 10 mM KCl. Cells were imaged for calcium during flow. Calcium flux was also measured by F340/380 ratio in HTM cells and NHF cells after treatment with the 0.1 μM TRPV4 agonist GSK1016790A. Results presented represent calcium mobilization in three independent experiments.
HTM cells treated, with or without pressure, were further evaluated to determine their response to TRPV4 agonist. HTM cells were serum-starved for 48 hours to induce ciliogenesis, followed by treatment with 0 or 50 mmHg for 3 hours. Cells were loaded with Fura-2 AM dye for 1 hour, followed with […] TRPV4 agonist GSK1016790A.
OCRL is required for TRPV4-mediated calcium signalling in HTM cells. HTM cells were additionally treated with OCRL siRNA or scrambled control siRNA, with or without wild-type OCRL or OCRL-D499A rescue. 0.1 μM TRPV4 agonist GSK1016790A treatment was performed and calcium mobilization by F340/380 (value X 1000) was measured and shown.
Additionally, a Lowe syndrome patient's keratinocytes were isolated and assayed for their response to TRPV4 treatment. NHKC or Lowe keratinocytes were serum-starved, loaded with Fura-2 AM and then treated with 0.1 μM TRPV4 agonist GSK1016790A. F340/380 ratio (value X 1000) was determined.

[3] = test system: C57BL/6 WT mice; experiment: Intraocular pressure in C57BL/6 WT mice, 4 days of treatment; assay type: in vivo, mouse; settings: nine-week old C57BL/6 WT mice, systemic, daily over 4 days, 24 hours after treatment; decrease from 12.4
Protocol: as §1
This finding was confirmed in wild-type C5BL/6 mice treated with systemic TRPV4 agonist, antagonist, or sham control, daily over 4 days. Nine-week old C57BL/6 WT mice were treated with sham, TRPV/4 agonist GSK 1016790A or antagonist HC 067047 for 4 days. IOP was measured using a Tonolab tonometer 24 hours after treatment. As shown in FIG. 12D article, a decrease in IOP from 12.4 to 10.3 mmHg was seen.

[4] = test system: HTM cells; experiment: Pressure-induced TNFα, TGFβ1 and Gli1 mRNA in serum-starved HTM cells (RT-PCR); assay type: cell-based, human; settings: 50 mmHg for 3 hours
Protocol: Total RNA was extracted using the RNAEASY® kit (Qiagen). Purified RNA was quantitated with the NANODROP® 2000 (Thermo Fisher Scientific, Lafayette, Colo.). Reverse transcription of total RNA was done using SUPERSCRIPT cDNA synthesis kit (Invitrogen) with random hexamers. Quantitative RT-PCR was performed using the RQ and ΔΔCt method on a Step One Real-Time PCR machine (Bio-Rad Laboratories, Hercules, Calif.). Each assay was performed in triplicate with Power SYBR green MasterMix (SA Biosciences, Frederick, Md.).
To analyze the cellular changes in the TM cells, a hydrostatic pressure chamber was developed similar to that of Mandel et al. (Invest. Ophthalmol. Vis. Sci. 2010, 51(6):3129-3138). The cells were grown in 60 mm polycarbonate dishes sealed to attach to a plastic column filled with 400 mL DMEM/F12 media with or without serum for cilia induction. The column was temperature controlled at 37° C. in humidified chamber. […]
HTM cells were serum-starved for 48 hours and treated with saline, saline plus 50 mmHg pressure, chlorohydrate, and chlorohydrate plus 50 mmHg pressure for 3 hours. Levels of mRNA of TNFα, TGFβ1 and Gli1 were then measured. […] Serum-starved HTM cells were also placed under 50 mmHg pressure for 0, 10, 20, 40, 60 and 80 minutes and analyzed for expression of TNFα and IL-33. […]

T1 sequence (Q9HBA0 whole entry): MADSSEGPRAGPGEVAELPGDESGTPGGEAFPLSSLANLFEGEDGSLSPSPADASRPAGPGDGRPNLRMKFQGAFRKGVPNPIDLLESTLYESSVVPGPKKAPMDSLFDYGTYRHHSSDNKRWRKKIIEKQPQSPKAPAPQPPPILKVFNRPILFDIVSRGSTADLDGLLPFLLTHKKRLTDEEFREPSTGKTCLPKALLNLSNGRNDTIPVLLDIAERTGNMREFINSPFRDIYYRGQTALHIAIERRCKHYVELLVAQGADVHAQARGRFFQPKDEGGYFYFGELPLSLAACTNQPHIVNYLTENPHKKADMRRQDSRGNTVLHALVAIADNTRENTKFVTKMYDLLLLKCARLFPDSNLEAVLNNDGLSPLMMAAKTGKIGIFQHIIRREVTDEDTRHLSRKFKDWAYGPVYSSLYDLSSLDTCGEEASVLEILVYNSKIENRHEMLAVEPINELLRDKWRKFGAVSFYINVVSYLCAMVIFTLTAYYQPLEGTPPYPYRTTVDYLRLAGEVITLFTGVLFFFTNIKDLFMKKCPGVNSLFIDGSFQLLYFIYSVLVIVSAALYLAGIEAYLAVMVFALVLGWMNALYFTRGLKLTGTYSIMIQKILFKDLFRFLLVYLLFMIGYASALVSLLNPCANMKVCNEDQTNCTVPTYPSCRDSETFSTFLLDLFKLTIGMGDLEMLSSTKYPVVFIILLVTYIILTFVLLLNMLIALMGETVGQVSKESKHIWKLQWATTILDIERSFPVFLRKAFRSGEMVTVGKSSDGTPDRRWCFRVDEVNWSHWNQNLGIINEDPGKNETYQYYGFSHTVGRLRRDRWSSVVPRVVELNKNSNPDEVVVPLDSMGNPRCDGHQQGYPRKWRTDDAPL

| SMILES | Intraocular pressure [1] | Calcium mobilization by F340/380 ([2]; HTM cells treated with OCRL siRNA, 0.1 μM agonist, rescued by wild-type OCRL, not by D499A mutant) | Calcium mobilization ([2]; Lowe patient fibroblasts (Lowe 1, Lowe 2)) | Calcium mobilization, F340/380 ratio ([2]; Lowe patient keratinocytes compared with normal keratinocytes (NHKC), 0.1 μM agonist) | Calcium flux as measured by F340/380 ratio ([2]; NHF cells, 0.1 μM agonist) | TRPV4-induced calcium flux, ratio of F340/380 ([2]; ciliated HTM cells, 50 mmHg hydrostatic pressure for 3 hours vs 0 mmHg) | IOP [3] [mmHg] | Elevation of gene transcription (TNFα, TGFβ1, Gli1 mRNA) in response to pressure [4] |
| --- | --- | --- | --- | --- | --- | --- | --- | --- |
| CC(C)C[C@H](NC(=O)c1cc2ccccc2s1)C(=O)N1CCN(C(=O)[C@H](CO)NS(=O)(=O)c2ccc(Cl)cc2Cl)CC1 [GSK1016790A, N-((1S)-1-{[4-((2S)-2-{[(2,4-dichlorophenyl)sulfonyl]amino}-3-hydroxypropanoyl)-1-piperazinyl]carbonyl}-3-methylbutyl)-1-benzothiophene-2-carboxamide] | significantly reduced | decrease in F340/F380 fura-2 signaling | failed to elicit calcium mobilization | failed to elicit calcium mobilization | elicited | significant decrease in TRPV4-induced calcium flux | 10.3 | – |
| Cc1c(C(=O)Nc2cccc(C(F)(F)F)c2)cc(-c2ccccc2)n1CCCN1CCOCC1 [HC 067047] | not | – | – | – | – | – | – | – |
| OC(O)C(Cl)(Cl)Cl [chlorohydrate] | – | – | – | – | – | – | – | reduced the elevation of gene transcription in response to pressure |
